The results in this text go back to US10144746B2 (GLOBAL BLOOD THERAPEUTICS, INC., priority 2015, dated 2018).

For one test, the target named is Human plasma kallikrein (Homo sapiens (Human), UniProt P03952). Description: In vitro plasma kallikrein inhibition assay (chromogenic substrate D-Pro-Phe-Arg-pNa, absorbance at 405 nm, IC50 determination).
Human plasma kallikrein, sequence (P03952 391-638): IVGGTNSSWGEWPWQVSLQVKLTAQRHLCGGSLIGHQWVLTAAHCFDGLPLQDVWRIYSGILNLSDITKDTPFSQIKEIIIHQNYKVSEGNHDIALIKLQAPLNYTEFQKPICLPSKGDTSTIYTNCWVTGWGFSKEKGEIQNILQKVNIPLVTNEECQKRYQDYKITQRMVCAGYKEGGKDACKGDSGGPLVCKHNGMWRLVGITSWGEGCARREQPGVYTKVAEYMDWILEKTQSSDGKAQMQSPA
Human plasma kallikrein, sequence (P03952 20-390 partner): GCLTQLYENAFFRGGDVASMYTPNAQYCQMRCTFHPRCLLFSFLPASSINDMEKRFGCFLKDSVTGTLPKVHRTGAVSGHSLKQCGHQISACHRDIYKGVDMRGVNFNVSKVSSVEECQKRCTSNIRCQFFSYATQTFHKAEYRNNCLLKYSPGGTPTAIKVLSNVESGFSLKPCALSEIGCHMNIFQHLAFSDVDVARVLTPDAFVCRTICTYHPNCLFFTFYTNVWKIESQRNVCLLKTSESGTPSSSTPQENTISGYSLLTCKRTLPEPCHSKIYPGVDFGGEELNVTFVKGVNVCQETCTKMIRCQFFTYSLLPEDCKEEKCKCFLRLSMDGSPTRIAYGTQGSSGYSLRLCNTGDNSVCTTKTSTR
Conditions: not given
Type of test: biochemical.
Consider `CCc1cc2c(cc1-c1ccc(F)cc1F)C1OC2c2ccc(C(=O)NCc3c(C)cc(N)nc3C)cc21` (racemic) [Example 321, (±)-N-[(6-amino-2,4-dimethyl-pyridin-3-yl)methyl]-12-(2,4-difluorophenyl)-11-ethyl-15-oxatetracyclo[6.6.1.0^2,^7.0^9,1^4] pentadeca-2,4,6,9(14),10,12-hexaene-4-carboxamide and (±)-N-[(6-amino-2,4-dimethylpyridin-3-yl)methyl]-11-(2,4-difluorophenyl)-12-ethyl-15-oxatetracyclo [6.6.1.0^2,^7.0^9,1^4]pentadeca-2,4,6,9(14),10,12-hexaene-4-carboxamide], for which the “KLKB1 pIC50” value was 8.09. Turning to `Cc1cc(N)nc(C)c1CNC(=O)c1ccc2c(c1)C1OC2(C)c2ccc(-c3ccc(F)cc3)cc21` (racemic) [Example 334, (±)-N-[(6-amino-2,4-dimethyl-pyridin-3-yl)methyl]-12-(4-fluorophenyl)-8-methyl-15-oxatetracyclo[6.6.1.0^2,^7.0^9,1^4] pentadeca-2,4,6,9,11,13-hexaene-4-carboxamide (±)-N-[(6-amino-2,4-dimethylpyridin-3-yl)methyl]-11-(4-fluorophenyl)-8-methyl-15-oxatetracyclo[6.6.1.0^2,^7.0^9,1^4] pentadeca-2,4,6,9,11,13-hexaene-4-carboxamide], the “KLKB1 pIC50” value came out at 5.6. Still for that read-out and setting: for `Cc1cc(N)nc(C)c1CNC(=O)c1ccc2c(c1)C1OC2c2c(C)cc(-c3ccc(F)cc3)cc21` (racemic) [Example 340, (±)-N-[(6-amino-2,4-dimethyl-pyridin-3-yl)methyl]-12-(4-fluorophenyl)-10-methyl-15-oxatetracyclo[6.6.1.0^2,^7.0^9,1^4] pentadeca-2,4,6,9(14),10,12-hexaene-4-carboxamide and (±)-N-[(6-amino-2,4-dimethylpyridin-3-yl)methyl]-11-(4-fluorophenyl)-13-methyl-15-oxatetracyclo [6.6.1.0^2,^7.0^9,1^4]pentadeca-2,4,6,9(14),10,12-hexaene-4-carboxamide] the value was 6.64.

The same test, now with this note: read-out: KLKB1 pIC50 (converted).
In the case of `Cc1cc2c(cc1C)C1OC2c2ccc(C(=O)NCc3c(C)cc(N)nc3C)cc21` (racemic) [Example 308, (±)-N-[(6-amino-2,4-dimethyl-pyridin-3-yl)methyl]-11,12-dimethyl-15-oxatetracyclo [6.6.1.0^2,^7.0^9,1^4]pentadeca-2,4,6,9(14),10,12-hexaene-4-carboxamide], the IC50 is 224 nM. As to `Cc1cc(N)nc(C)c1CNC(=O)c1ccc2c(c1)C1OC2c2cc(C3CC3)c(C3CC3)cc21` (racemic) [Example 311, (±)-N-[(6-amino-2,4-dimethyl-pyridin-3-yl)-methyl]-11,12-dicyclopropyl-15-oxatetracyclo [6.6.1.0^2,^7.0^9,1^4]pentadeca-2,4,6,9,11,13-hexaene-4-carboxamide], the IC50 is 32.4 nM. Consider `Cc1cc(N)nc(C)c1CNC(=O)c1ccc2c(c1)C1OC2c2cc(-c3ccccc3)c(-c3ccccc3)cc21` (racemic) [Example 314, (±)-N-[(6-amino-2,4-dimethyl-pyridin-3-yl)-methyl]-11,12-diphenyl-15-oxatetracyclo-[6.6.1.0^2,^7.0^9,1^4]pentadeca-2,4,6,9,11,13-hexaene-4-carboxamide], for which the IC50 is 871 nM. Same read-out and setting: in the case of `CCc1cc2c(cc1CC)C1OC2c2ccc(C(=O)NCc3ccc(C(=N)N)cc3)cc21` (racemic) [Example 315, (±)-N-[(4-carbamimidoylphenyl)methyl]-11,12-diethyl-15-oxatetracyclo[6.6.1.0^2,^7.0^9,1^4]-pentadeca-2,4,6,9(14),10,12-hexaene-4-carboxamide] it was 1.82 nM.

As for `N=C(N)c1ccc(CNC(=O)c2ccc3c(c2)C2OC3c3cc(C4CC4)c(C4CC4)cc32)cc1` (racemic) [Example 316, (±)-N-[(4-carbamimidoyl-phenyl)methyl]-11,12-dicyclopropyl-15-oxatetracyclo [6.6.1.0^2,^7.0^9,1^4]-pentadeca-2,4,6,9,11,13-hexaene-4-carboxamide], the IC50 is 4.9 nM. With `Cc1cc2c(cc1C)C1OC2c2ccc(C(=O)NCc3ccc(C(=N)N)cc3)cc21` (racemic) [Example 317, (±)-N-[(4-carbamimidoylphenyl)methyl]-11,12-dimethyl-15-oxatetracyclo[6.6.1.0^2,^7.0^9,1^4]-pentadeca-2,4,6,9(14),10,12-hexaene-4-carboxamide], the IC50 was 28.8 nM.

As to `Cc1cc(N)nc(C)c1CNC(=O)c1ccc2c(c1)C1OC2c2cc3c(cc21)C(=O)N(C)C3=O` (racemic) [Example 318, (±)-N-[(6-amino-2,4-dimethyl-pyridin-3-yl)methyl]-6-methyl-5,7-dioxo-18-oxa-6-azapentacyclo [9.6.1.0^2,1^0.0^4,^8.0^12,1^4]octadeca-2(10),3,8,12,14,16-hexaene-14-carboxamide], the IC50 is 17.4 nM. Take `COC(=O)c1cc2c(cc1C(=O)OC)C1OC2c2ccc(C(=O)NCc3c(C)cc(N)nc3C)cc21` (racemic) [Example 319, (±)-4,5-dimethyl 11-{[(6-amino-2,4-dimethyl-pyridin-3-yl)methyl]carbamoyl}-15-oxatetracyclo[6.6.1.0^2,^7.0^9,1^4] pentadeca-2(7),3,5,9,11,13-hexaene-4,5-dicarboxylate]: the IC50 is 2450 nM. For the molecule `Cc1cc(N)nc(C)c1CNC(=O)c1ccc2c(c1)C1OC2c2cc3c(O)nnc(O)c3cc21` (racemic) [Example 320, (±)-N-[(6-amino-2,4-dimethyl-pyridin-3-yl)methyl]-5,8-dihydroxy-19-oxa-6,7-diazapentacyclo [10.6.1.0^2,^11.0^4,^9.0^13,1^8] nonadeca-2(11),3,5,7,9,13,15,17-octaene-15-carboxamide], the IC50 is 10200 nM. Still for that read-out and setting: in the case of `Cc1cc(N)nc(C)c1CNC(=O)c1ccc2c(c1)C1OC2c2cc(C#N)c(C#N)cc21` (racemic) [Example 326, (±)-N-((6-amino-2,4-dimethylpyridin-3-yl)methyl]-11,12-dicyano-15-oxatetracyclo-[6.6.1.0^2,^7.0^9,1^4]pentadeca-2,4,6,9,11,13-hexaene-4-carboxamide] it was 851 nM; in that of `COc1cc2c(cc1OC)C1OC2c2ccc(C(=O)NCc3c(C)cc(N)nc3C)cc21` (racemic) [Example 335, (±)-N-[(6-amino-2,4-dimethylpyridin-3-yl)methyl]-11,12-dimethoxy-15-oxatetracyclo[6.6.1.0^2,^7.0^9,1^4] pentadeca-2,4,6,9(14),10,12-hexaene-4-carboxamide], 1620 nM. Consider `Cc1cc(N)nc(C)c1CNC(=O)c1ccc2c(c1)C1OC2c2cc3c(cc21)OCCO3` (racemic) [Example 342, (±)-N-[(6-amino-2,4-dimethylpyridin-3-yl)methyl]-5,8,19-trioxapentacyclo-[10.6.1.0^2,11.0^4,^9.0^13,1^8]nonadeca-2,4(9),10,13,15,17-hexaene-15-carboxamide], for which the IC50 was 550 nM. Still for that read-out and setting: in the case of `CC12OC(C)(c3cc(C(=O)NCc4ccc(C(=N)N)cc4)ccc31)c1cc(-c3ccc(F)cc3)ccc12` (racemic) [Example 344, N-[(4-carbamimidoylphenyl)methyl]-12-(4-fluorophenyl)-1,8-dimethyl-15-oxatetracyclo [6.6.1.0^2,^7.0^9,1^4]pentadeca-2,4,6,9,11,13-hexaene-4-carboxamide] it was 427 nM; in that of `Cc1cc(-c2ccc(F)cc2)cc2c1C1OC2c2cc(C(=O)NCc3ccc(C(=N)N)cc3)cc(F)c21` (racemic) [Example 396, (±)-N-[(4-carbamimidoylphenyl)methyl]-6-fluoro-12-(4-fluorophenyl)-10-methyl-15-oxatetracyclo[6.6.1.0^2,^7.0^9,1^4] pentadeca-2(7),3,5,9(14),10,12-hexaene-4-carboxamide], 5.01 nM; in that of `Cc1cc(N)nc(C)c1CNC(=O)c1cc(F)c2c(c1)C1OC2c2c(C)cc(-c3ccc(F)cc3)cc21` (racemic) [Example 397, (±)-N-(6-amino-2,4-dimethylpyridin-3-yl) methyl]-6-fluoro-12-(4-fluorophenyl)-10-methyl-15-oxatetracyclo[6.6.1.0^2,^7.0^9,1^4] pentadeca-2(7),3,5,9(14),10,12-hexaene-4-carboxamide], 20 nM.

As to `Cc1cc(N)nc(C)c1CNC(=O)c1cc(F)c2c(c1)C1OC2c2cc(-c3ccc(F)cc3)cc(C)c21` (racemic) [Example 398, N-[(6-amino-2,4-dimethyl-pyridin-3-yl)methyl]-6-fluoro-11-(4-fluorophenyl)-13-methyl-15-oxatetracyclo[6.6.1.0^2,^7.0^9,1^4] pentadeca-2,4,6,9(14),10,12-hexaene-4-carboxamide], the IC50 was 398 nM. Consider `Cc1cc(N)nc(C)c1CNC(=O)c1ccc2c(c1)[C@@H]1O[C@H]2c2cc(-c3ccccc3F)ccc21` (single isomer, unassigned) [Example 130], for which the IC50 is 195 nM. `Cc1cc(N)nc(C)c1CNC(=O)c1ccc2c(c1)[C@@H]1O[C@H]2c2ccc(-c3ccc(F)c(F)c3F)cc21` (single isomer, unassigned) [Example 138]: the IC50 was 24 nM. For the molecule `Cc1cc(N)nc(C)c1CNC(=O)c1ccc2c(c1)[C@@H]1O[C@H]2c2ccc(-c3ccc(Cl)cc3C#N)cc21` (single isomer, unassigned) [Example 139], the IC50 is 3.02 nM. Regarding `Cc1ccc(-c2ccc3c(c2)[C@H]2O[C@@H]3c3ccc(C(=O)NCc4c(C)cc(N)nc4C)cc32)c(C#N)c1` (single isomer, unassigned) [Example 140], the IC50 was 5.01 nM. The same measure, in the same setting: in the case of `Cc1cc(N)nc(C)c1CNC(=O)c1ccc2c(c1)[C@@H]1O[C@H]2c2ccc(-c3ccc(Cl)c(F)c3F)cc21` (single isomer, unassigned) [Example 145] it was 17.4 nM.

`Cc1cc(N)nc(C)c1CNC(=O)c1ccc2c(c1)[C@@H]1O[C@H]2c2ccc(-c3ccc(Cl)cc3F)cc21` (single isomer, unassigned) [Example 174]: the IC50 was 46.8 nM. Consider `Cc1cc(N)nc(C)c1CNC(=O)c1ccc2c(c1)[C@@H]1O[C@H]2c2ccc(-c3ccc(F)cc3Cl)cc21` (single isomer, unassigned) [Example 176], for which the IC50 was 67.6 nM. Same read-out and setting: for `COc1ccc(-c2ccc3c(c2)[C@H]2O[C@@H]3c3ccc(C(=O)NCc4c(C)cc(N)nc4C)cc32)c(F)n1` (single isomer, unassigned) [Example 177] the value was 117 nM.
